Measurements taken from ChEMBL document CHEMBL2028040, “Malaria Box”.

Key:
Plasmodium falciparum = test: MMV: Inhibition of Plasmodium falciparum 3D7 (EC50).; format: functional, organism-based
Trypanosoma cruzi = test: MMV: Inhibition of Trypanosoma cruzi (Tulahuen C4 LacZ) (Chagas in vitro).; format: functional, organism-based
[1] = test system: Trypanosoma brucei brucei; test: MMV: Inhibition of Trypanosoma brucei brucei (Squib 427) (HAT in vitro).; format: functional, organism-based
[2] = test system: Trypanosoma brucei rhodesiense; test: MMV: Inhibition of Trypanosoma brucei rhodesiense (STIB 900) (HAT in vitro).; format: functional, organism-based
Leishmania infantum = test: MMV: Inhibition of Leishmania infantum (MHOM/MA/BE/67) in vitro.; format: functional, organism-based
[3] = MMV: Cytotoxicity against human fibroblasts (MRC-5) cells.; conditions: MRC-5 cells (human fibroblasts)

Row | Structure (SMILES) | EC50 (Plasmodium falciparum) | IC50 (Trypanosoma cruzi) | IC50 [1] | IC50 [2] | IC50 (Leishmania infantum) | IC50 [3]
1 | CCOc1cc(CNC(C)C(O)c2ccccc2)cc(Cl)c1OCC (stereo not drawn) | 1.24 µM | 25.4 µM | 11.5 µM | 8.67 µM | 16.6 µM | > 32 µM
2 | CCOc1c(Cl)cc(CNCC(O)c2ccccc2)cc1OC (stereo not drawn) | 1.05 µM | > 32 µM | 11.9 µM | 16.1 µM | > 32 µM | > 32 µM
3 | COc1ccc(-c2nc(N3CCN(C(=O)C4CCCCC4)CC3)c3c4c(sc3n2)CCCC4)cc1 | 1.06 µM | 7.45 µM | 4.09 µM | 4.07 µM | 4.32 µM | > 32 µM
4 | CCOc1ccccc1CN1CCc2nc3cc(C(C)(C)C)nn3c(O)c2C1 | 1.01 µM | > 32 µM | 28.9 µM | > 32 µM | > 32 µM | > 32 µM
5 | O=C(NC1CCN(Cc2ccccc2)CC1)c1cc2nc(-c3ccc(Cl)s3)cc(C(F)(F)F)n2n1 | 0.959 µM | > 32 µM | > 32 µM | > 32 µM | 16 µM | > 32 µM
6 | Cc1sc(NC(=O)c2ccccc2)c(C(c2cccs2)N2CCN(c3ccccc3)CC2)c1C (stereo not drawn) | 1.18 µM | > 32 µM | 6.32 µM | 4 µM | 12.7 µM | > 32 µM
7 | Cc1sc(NC(=O)c2ccco2)c(C(c2cccnc2)N2CCC(Cc3ccccc3)CC2)c1C (stereo not drawn) | 1.02 µM | 1.36 µM | 3.94 µM | 3.97 µM | 16.2 µM | > 32 µM
8 | Cc1cc(N2CCCC2)nc(Nc2ccc(NC(=O)CCc3ccccc3)cc2)n1 | 1.07 µM | 1.01 µM | 4.3 µM | 0.871 µM | 1.19 µM | 5.38 µM
9 | Cc1cc(NC(=O)c2cccc(C(F)(F)F)c2)n(-c2nc(-c3ccc4c(c3)OCO4)cs2)n1 | 0.959 µM | > 32 µM | > 32 µM | > 32 µM | 16.2 µM | > 32 µM

Molecules with a lower EC50 (Plasmodium falciparum), results first:

Row | EC50 (Plasmodium falciparum) | IC50 (Trypanosoma cruzi) | IC50 [1] | IC50 [2] | IC50 (Leishmania infantum) | Structure (SMILES) | IC50 [3]
10 | 0.218 µM | > 32 µM | > 32 µM | > 32 µM | 16.2 µM | CCN1CCCC1CNc1[nH]cnc2c3cc(Cl)ccc3nc1-2 (stereo not drawn) | > 32 µM
11 | 0.296 µM | 16 µM | 14 µM | 16 µM | > 32 µM | C[n+]1c2ccccc2nc2ccc(NCCO)cc21 | > 32 µM
12 | 0.693 µM | 0.81 µM | 0.28 µM | 0.803 µM | 4.06 µM | CCn1nc(-c2ccc(C(=O)OC)cc2)nc2c(=O)n(C)c(=O)nc1-2 | 3.53 µM
13 | 0.615 µM | 13.3 µM | 16.2 µM | 10.8 µM | > 32 µM | CCOC(=O)c1c(C)n(-c2ccccc2)c2ccc(OC(=O)c3cc(OC)c(OC)c(OC)c3)cc12 | 26.4 µM
14 | 0.898 µM | > 32 µM | > 32 µM | > 32 µM | 16.2 µM | COc1cc(C(=O)Nc2nc3c(cc4c5c(cccc53)CC4)s2)cc(OC)c1OC | > 32 µM
15 | 0.433 µM | 22.5 µM | 16.1 µM | 1.7 µM | 16.1 µM | O=C(NCC(c1ccsc1)N1CCCCCC1)c1ccc(C(F)(F)F)cc1 (stereo not drawn) | > 32 µM
16 | 0.0899 µM | > 32 µM | > 32 µM | > 32 µM | 16.2 µM | COc1ccc(-c2cc3c(SCC(=O)Nc4cc(C(F)(F)F)ccc4Cl)nccn3n2)cc1 | > 32 µM
17 | 0.0928 µM | > 32 µM | > 32 µM | > 32 µM | > 32 µM | Cc1ccc(-c2cc3c(SCC(=O)Nc4cc(C(F)(F)F)ccc4Cl)nccn3n2)cc1 | > 32 µM
18 | 0.707 µM | 17.1 µM | 16.3 µM | 16 µM | 16 µM | CCN(CC)CCNc1ncnc2c1[nH]c1ccc(Br)cc12 | > 32 µM
